Assay results taken from ChEMBL document CHEMBL4507305, “Data for DCP probe TP-024” (2021).

Tests used:
[1] = molecular target: Dual specificity mitogen-activated protein kinase kinase 1 (Homo sapiens) (UniProt Q02750); details: Compound concentration 1000.0 nM
[2] = molecular target: SRSF protein kinase 2 (Homo sapiens) (UniProt P78362); details: Compound concentration 1000.0 nM
[3] = molecular target: 3-phosphoinositide-dependent protein kinase 1 (Homo sapiens) (UniProt O15530); details: Compound concentration 1000.0 nM
[4] = molecular target: Atypical kinase COQ8B, mitochondrial (Homo sapiens) (UniProt Q96D53); details: Compound concentration 1000.0 nM
[5] = molecular target: Serine/threonine-protein kinase PLK3 (Homo sapiens) (UniProt Q9H4B4); details: Compound concentration 1000.0 nM
[6] = molecular target: Dual specificity protein kinase CLK3 (Homo sapiens) (UniProt P49761); details: Compound concentration 1000.0 nM
[7] = molecular target: Death-associated protein kinase 1 (Homo sapiens) (UniProt P53355); details: Compound concentration 1000.0 nM
[8] = test system: Epidermal growth factor receptor (Homo sapiens), P00533 [UNDEFINED MUTATION]; details: Compound concentration 1000.0 nM
[9] = test system: Receptor-type tyrosine-protein kinase FLT3 (Homo sapiens), P36888 [K663Q]; details: Compound concentration 1000.0 nM
[10] = molecular target: Bone morphogenetic protein receptor type-1A (Homo sapiens) (UniProt P36894); details: Compound concentration 1000.0 nM
[11] = test system: Mast/stem cell growth factor receptor Kit (Homo sapiens), P10721 [A829P]; details: Compound concentration 1000.0 nM
[12] = molecular target: Serine/threonine-protein kinase N1 (Homo sapiens) (UniProt Q16512); details: Compound concentration 1000.0 nM
[13] = molecular target: Mitogen-activated protein kinase kinase kinase 19 (Homo sapiens) (UniProt Q56UN5); details: Compound concentration 1000.0 nM
[14] = molecular target: Ephrin type-B receptor 4 (Homo sapiens) (UniProt P54760); details: Compound concentration 1000.0 nM
[15] = molecular target: Macrophage-stimulating protein receptor (Homo sapiens) (UniProt Q04912); details: Compound concentration 1000.0 nM
[16] = molecular target: Mitogen-activated protein kinase kinase kinase 15 (Homo sapiens) (UniProt Q6ZN16); details: Compound concentration 1000.0 nM
[17] = molecular target: Phosphatidylinositol 4-kinase beta (Homo sapiens) (UniProt Q9UBF8); details: Compound concentration 1000.0 nM
[18] = molecular target: Mitogen-activated protein kinase 13 (Homo sapiens) (UniProt O15264); details: Compound concentration 1000.0 nM
[19] = molecular target: Receptor tyrosine-protein kinase erbB-4 (Homo sapiens) (UniProt Q15303); details: Compound concentration 1000.0 nM
[20] = test system: Tyrosine-protein kinase ABL1 (Homo sapiens), P00519 [F317I]; details: Compound concentration 1000.0 nM
[21] = molecular target: Tyrosine-protein kinase Yes (Homo sapiens) (UniProt P07947); details: Compound concentration 1000.0 nM
[22] = molecular target: Ribosomal protein S6 kinase alpha-2 (Homo sapiens) (UniProt Q15349); details: Compound concentration 1000.0 nM
[23] = molecular target: Muscarinic acetylcholine receptor M4 (Homo sapiens) (UniProt P08173); details: Compound concentration 10.0 uM
[24] = molecular target: Tyrosine-protein kinase JAK2 (Homo sapiens) (UniProt O60674); details: Compound concentration 1000.0 nM
[25] = molecular target: Serine/threonine-protein kinase Nek6 (Homo sapiens) (UniProt Q9HC98); details: Compound concentration 1000.0 nM
[26] = molecular target: D(3) dopamine receptor (Homo sapiens) (UniProt P35462); details: Compound concentration 10.0 uM
[27] = molecular target: Serine/threonine-protein kinase MARK2 (Homo sapiens) (UniProt Q7KZI7); details: Compound concentration 1000.0 nM
[28] = molecular target: Serine/threonine-protein kinase PAK 4 (Homo sapiens) (UniProt O96013); details: Compound concentration 1000.0 nM
[29] = test system: Phosphatidylinositol 4,5-bisphosphate 3-kinase catalytic subunit alpha isoform (Homo sapiens), P42336 [E542K]; details: Compound concentration 1000.0 nM
[30] = molecular target: Beta-1 adrenergic receptor (Homo sapiens) (UniProt P08588); details: Compound concentration 10.0 uM
[31] = molecular target: Mitogen-activated protein kinase 14 (Homo sapiens) (UniProt Q16539); details: Compound concentration 1000.0 nM
[32] = molecular target: Mitogen-activated protein kinase kinase kinase 1 (Homo sapiens) (UniProt Q13233); details: Compound concentration 1000.0 nM
[33] = molecular target: Serine/threonine-protein kinase D2 (Homo sapiens) (UniProt Q9BZL6); details: Compound concentration 1000.0 nM
[34] = molecular target: Serine/threonine-protein kinase TAO3 (Homo sapiens) (UniProt Q9H2K8); details: Compound concentration 1000.0 nM
[35] = molecular target: Tyrosine-protein kinase ABL1 (Homo sapiens) (UniProt P00519); details: Compound concentration 1000.0 nM
[36] = molecular target: Protein kinase C delta type (Homo sapiens) (UniProt Q05655); details: Compound concentration 1000.0 nM
[37] = molecular target: TGF-beta receptor type-1 (Homo sapiens) (UniProt P36897); details: Compound concentration 1000.0 nM
[38] = molecular target: Mast/stem cell growth factor receptor Kit (Homo sapiens) (UniProt P10721); details: Compound concentration 1000.0 nM
[39] = molecular target: Non-receptor tyrosine-protein kinase TNK1 (Homo sapiens) (UniProt Q13470); details: Compound concentration 1000.0 nM
[40] = molecular target: Mast/stem cell growth factor receptor Kit (Homo sapiens) (UniProt P10721); details: Compound concentration 1000.0 nM; remark: listed apart in the source
[41] = molecular target: Serine/threonine-protein kinase B-raf (Homo sapiens) (UniProt P15056); details: Compound concentration 1000.0 nM
[42] = molecular target: Cyclin-dependent kinase 2 (Homo sapiens) (UniProt P24941); details: Compound concentration 1000.0 nM
[43] = molecular target: Epithelial discoidin domain-containing receptor 1 (Homo sapiens) (UniProt Q08345); details: Compound concentration 1000.0 nM
[44] = molecular target: Rho-associated protein kinase 2 (Homo sapiens) (UniProt O75116); details: Compound concentration 1000.0 nM
[45] = molecular target: Discoidin domain-containing receptor 2 (Homo sapiens) (UniProt Q16832); details: Compound concentration 1000.0 nM

Mast/stem cell growth factor receptor Kit (Homo sapiens), sequence (P10721 whole entry): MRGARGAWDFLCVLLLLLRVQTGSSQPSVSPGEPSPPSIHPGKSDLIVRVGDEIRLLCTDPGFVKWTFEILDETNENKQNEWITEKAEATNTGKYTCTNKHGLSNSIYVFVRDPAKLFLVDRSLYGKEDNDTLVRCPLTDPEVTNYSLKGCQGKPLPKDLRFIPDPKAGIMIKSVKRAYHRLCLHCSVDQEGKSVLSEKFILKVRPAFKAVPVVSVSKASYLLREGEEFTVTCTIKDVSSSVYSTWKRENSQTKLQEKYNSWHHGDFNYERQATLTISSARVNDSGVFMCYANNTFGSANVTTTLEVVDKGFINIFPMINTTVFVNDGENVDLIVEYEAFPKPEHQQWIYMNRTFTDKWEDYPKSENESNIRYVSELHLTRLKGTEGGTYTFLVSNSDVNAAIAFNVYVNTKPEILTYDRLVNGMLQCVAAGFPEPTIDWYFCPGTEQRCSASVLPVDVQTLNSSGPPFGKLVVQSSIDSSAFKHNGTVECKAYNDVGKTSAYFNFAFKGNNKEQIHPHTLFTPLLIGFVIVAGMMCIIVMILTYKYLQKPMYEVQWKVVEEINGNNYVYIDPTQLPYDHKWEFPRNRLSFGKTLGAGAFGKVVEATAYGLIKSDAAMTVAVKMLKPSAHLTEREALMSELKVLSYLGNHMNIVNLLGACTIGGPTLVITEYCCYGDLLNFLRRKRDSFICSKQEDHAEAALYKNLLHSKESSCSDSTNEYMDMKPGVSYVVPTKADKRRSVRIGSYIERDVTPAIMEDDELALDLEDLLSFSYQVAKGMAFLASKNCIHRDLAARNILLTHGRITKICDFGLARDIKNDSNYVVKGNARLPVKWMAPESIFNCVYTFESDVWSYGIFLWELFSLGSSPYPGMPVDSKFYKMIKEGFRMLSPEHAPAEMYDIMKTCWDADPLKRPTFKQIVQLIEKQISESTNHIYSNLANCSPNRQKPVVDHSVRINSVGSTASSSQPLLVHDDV
Serine/threonine-protein kinase B-raf (Homo sapiens), sequence (P15056 whole entry): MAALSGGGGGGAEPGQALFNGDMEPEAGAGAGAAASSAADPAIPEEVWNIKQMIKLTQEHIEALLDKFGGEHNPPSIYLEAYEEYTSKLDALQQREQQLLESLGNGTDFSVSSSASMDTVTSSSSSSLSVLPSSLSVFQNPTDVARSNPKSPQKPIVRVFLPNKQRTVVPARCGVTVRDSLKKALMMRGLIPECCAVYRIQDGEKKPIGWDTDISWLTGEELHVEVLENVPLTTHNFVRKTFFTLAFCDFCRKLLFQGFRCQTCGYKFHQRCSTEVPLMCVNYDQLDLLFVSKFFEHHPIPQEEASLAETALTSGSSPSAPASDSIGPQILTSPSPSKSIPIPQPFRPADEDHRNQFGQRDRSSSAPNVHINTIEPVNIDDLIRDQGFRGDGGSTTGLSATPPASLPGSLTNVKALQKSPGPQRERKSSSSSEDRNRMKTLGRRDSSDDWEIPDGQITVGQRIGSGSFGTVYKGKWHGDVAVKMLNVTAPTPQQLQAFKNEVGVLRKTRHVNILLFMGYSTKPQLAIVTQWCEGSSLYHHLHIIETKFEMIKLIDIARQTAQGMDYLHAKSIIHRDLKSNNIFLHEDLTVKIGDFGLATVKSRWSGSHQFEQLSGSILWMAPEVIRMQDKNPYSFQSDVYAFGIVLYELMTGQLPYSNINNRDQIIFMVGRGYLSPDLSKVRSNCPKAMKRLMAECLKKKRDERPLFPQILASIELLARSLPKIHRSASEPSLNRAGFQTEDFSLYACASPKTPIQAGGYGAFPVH
Tyrosine-protein kinase ABL1 (Homo sapiens), P00519 [F317I], sequence (P00519 whole entry F317I): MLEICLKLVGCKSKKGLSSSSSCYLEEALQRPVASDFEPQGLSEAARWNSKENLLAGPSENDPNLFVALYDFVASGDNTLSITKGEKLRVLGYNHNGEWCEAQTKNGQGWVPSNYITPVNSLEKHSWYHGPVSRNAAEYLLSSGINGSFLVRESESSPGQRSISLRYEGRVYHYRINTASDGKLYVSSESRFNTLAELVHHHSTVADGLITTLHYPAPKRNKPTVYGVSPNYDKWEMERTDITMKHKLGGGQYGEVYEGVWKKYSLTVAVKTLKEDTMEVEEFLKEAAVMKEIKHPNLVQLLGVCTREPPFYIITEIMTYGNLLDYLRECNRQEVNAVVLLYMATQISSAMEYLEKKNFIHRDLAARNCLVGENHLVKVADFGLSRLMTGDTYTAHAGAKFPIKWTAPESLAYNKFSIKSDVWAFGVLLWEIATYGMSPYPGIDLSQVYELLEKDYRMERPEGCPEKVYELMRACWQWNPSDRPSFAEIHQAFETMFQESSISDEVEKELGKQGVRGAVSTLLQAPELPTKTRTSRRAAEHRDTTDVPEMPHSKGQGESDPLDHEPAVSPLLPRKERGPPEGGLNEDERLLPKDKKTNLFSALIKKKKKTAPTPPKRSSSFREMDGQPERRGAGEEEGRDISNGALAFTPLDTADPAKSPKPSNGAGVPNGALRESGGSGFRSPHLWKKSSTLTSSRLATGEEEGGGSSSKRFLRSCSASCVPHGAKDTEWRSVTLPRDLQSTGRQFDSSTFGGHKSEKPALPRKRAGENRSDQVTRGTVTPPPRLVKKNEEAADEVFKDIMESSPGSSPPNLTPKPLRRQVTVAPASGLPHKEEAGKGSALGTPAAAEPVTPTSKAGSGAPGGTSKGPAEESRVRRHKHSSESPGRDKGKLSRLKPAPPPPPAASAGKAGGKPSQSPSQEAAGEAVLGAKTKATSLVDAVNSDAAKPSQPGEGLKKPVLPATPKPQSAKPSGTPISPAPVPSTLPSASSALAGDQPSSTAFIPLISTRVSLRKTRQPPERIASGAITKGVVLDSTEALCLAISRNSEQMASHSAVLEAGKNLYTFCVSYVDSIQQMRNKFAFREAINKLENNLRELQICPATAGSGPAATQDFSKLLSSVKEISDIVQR
Ribosomal protein S6 kinase alpha-2 (Homo sapiens), sequence (Q15349 whole entry): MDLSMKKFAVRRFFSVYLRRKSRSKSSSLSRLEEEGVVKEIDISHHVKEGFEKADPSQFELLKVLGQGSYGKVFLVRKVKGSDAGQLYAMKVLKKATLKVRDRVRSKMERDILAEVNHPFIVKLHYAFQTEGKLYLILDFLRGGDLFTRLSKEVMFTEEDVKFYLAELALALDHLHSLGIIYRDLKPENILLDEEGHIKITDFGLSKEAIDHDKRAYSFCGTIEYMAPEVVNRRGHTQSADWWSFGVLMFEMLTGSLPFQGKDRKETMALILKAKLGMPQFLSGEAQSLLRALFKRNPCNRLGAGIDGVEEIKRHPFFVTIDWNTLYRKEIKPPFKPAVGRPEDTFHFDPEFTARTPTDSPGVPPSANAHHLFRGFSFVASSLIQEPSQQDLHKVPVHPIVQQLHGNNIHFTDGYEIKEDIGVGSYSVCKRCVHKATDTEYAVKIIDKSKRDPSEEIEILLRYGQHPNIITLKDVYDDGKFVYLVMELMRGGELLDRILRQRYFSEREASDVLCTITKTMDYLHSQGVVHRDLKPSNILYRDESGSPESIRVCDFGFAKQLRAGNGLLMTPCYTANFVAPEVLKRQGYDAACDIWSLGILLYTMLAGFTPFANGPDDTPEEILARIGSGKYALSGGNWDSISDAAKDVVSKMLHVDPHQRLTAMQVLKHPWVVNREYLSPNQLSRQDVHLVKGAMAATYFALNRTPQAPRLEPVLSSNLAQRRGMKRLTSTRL
Phosphatidylinositol 4-kinase beta (Homo sapiens), sequence (Q9UBF8 2-816 limits assumed): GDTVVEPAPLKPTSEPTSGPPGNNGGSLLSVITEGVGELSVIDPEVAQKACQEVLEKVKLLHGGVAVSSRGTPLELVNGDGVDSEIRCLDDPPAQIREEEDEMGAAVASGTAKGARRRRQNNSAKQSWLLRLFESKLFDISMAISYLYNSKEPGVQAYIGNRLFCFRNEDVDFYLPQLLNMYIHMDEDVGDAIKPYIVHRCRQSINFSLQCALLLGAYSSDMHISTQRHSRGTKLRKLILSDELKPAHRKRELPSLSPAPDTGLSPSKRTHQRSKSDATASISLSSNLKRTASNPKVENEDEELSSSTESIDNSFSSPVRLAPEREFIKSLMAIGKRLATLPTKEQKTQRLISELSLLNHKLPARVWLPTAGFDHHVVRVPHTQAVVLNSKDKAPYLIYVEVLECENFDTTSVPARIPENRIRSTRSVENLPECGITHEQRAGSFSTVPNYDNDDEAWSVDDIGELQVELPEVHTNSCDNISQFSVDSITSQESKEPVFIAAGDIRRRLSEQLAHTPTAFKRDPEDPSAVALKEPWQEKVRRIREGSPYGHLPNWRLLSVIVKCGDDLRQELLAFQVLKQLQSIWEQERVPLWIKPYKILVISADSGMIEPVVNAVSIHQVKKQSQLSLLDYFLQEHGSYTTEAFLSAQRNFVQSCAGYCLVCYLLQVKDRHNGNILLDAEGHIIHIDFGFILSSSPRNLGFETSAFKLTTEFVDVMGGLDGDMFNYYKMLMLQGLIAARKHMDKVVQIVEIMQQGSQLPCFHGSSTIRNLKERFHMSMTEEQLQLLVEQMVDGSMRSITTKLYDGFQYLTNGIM
Mast/stem cell growth factor receptor Kit (Homo sapiens), P10721 [A829P], sequence (P10721 whole entry A829P): as the sequence (P10721 whole entry) above, with A829P counted along it
D(3) dopamine receptor (Homo sapiens), sequence (P35462 whole entry): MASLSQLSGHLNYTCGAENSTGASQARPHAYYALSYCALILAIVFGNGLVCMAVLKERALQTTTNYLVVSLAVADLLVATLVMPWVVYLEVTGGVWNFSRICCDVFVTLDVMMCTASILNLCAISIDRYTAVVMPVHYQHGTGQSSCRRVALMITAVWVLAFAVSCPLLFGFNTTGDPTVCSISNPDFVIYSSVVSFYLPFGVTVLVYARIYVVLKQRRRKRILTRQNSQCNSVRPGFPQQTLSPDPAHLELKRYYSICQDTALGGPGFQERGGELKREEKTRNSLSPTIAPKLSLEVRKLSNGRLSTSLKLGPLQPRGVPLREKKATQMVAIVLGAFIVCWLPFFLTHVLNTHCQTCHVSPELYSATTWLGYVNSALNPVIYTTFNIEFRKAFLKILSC
Tyrosine-protein kinase ABL1 (Homo sapiens), sequence (P00519 whole entry): as the sequence (P00519 whole entry F317I) above, with I317F counted along it

Cc1cc(-n2nc(Cc3cc(F)cc(C(F)(F)F)c3)nc2C)ccc1C(N)=O [TP-024]
inactive: residual activity [1] 100% | residual activity [2] 100% | residual activity [3] 100% | residual activity [4] 100% | residual activity [5] 100% | residual activity [6] 94% | residual activity [7] 99% | residual activity [8] 100% | residual activity [9] 100% | residual activity [10] 85% | residual activity [11] 100% | residual activity [12] 100% | residual activity [13] 98% | residual activity [14] 100% | residual activity [15] 100% | residual activity [16] 100% | residual activity [17] 100% | residual activity [18] 100% | residual activity [19] 67% | residual activity [20] 100% | residual activity [21] 100% | residual activity [22] 100% | inhibition [23] 6.9% | residual activity [24] 100% | residual activity [25] 95% | inhibition [26] 3.4% | residual activity [27] 89% | residual activity [28] 100% | residual activity [29] 73% | inhibition [30] 11.8% | residual activity [31] 95% | residual activity [32] 100% | residual activity [33] 94% | residual activity [34] 83% | residual activity [35] 100% | residual activity [36] 88% | residual activity [37] 94% | residual activity [38] 100% | residual activity [39] 69% | residual activity [40] 95% | residual activity [41] 86% | residual activity [42] 100% | residual activity [43] 86% | residual activity [44] 96% | residual activity [45] 100%

Cc1nc(Cc2cccc(C(F)(F)F)c2)sc1-c1ccc(C(N)=O)nc1 [TP-024n]
inactive: residual activity [1] 100% | residual activity [2] 100% | residual activity [3] 82% | residual activity [4] 100% | residual activity [5] 94% | residual activity [6] 85% | residual activity [7] 100% | residual activity [8] 100% | residual activity [9] 88% | residual activity [10] 76% | residual activity [11] 96% | residual activity [12] 98% | residual activity [13] 100% | residual activity [14] 100% | residual activity [15] 100% | residual activity [16] 100% | residual activity [17] 91% | residual activity [18] 99% | residual activity [19] 74% | residual activity [20] 100% | residual activity [21] 100% | residual activity [22] 95% | inhibition [23] 2.94% | residual activity [24] 100% | residual activity [25] 90% | inhibition [26] 6.21% | residual activity [27] 69% | residual activity [28] 96% | residual activity [29] 66% | inhibition [30] 7.56% | residual activity [31] 100% | residual activity [32] 100% | residual activity [33] 76% | residual activity [34] 83% | residual activity [35] 98% | residual activity [36] 79% | residual activity [37] 90% | residual activity [38] 100% | residual activity [39] 85% | residual activity [40] 95% | residual activity [41] 73% | residual activity [42] 100% | residual activity [43] 100% | residual activity [44] 59% | residual activity [45] 100%
